Reference: ChEMBL document CHEMBL1201862, “PubChem BioAssay data set” (2004)
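Five compound concentrations were applied to cells in 96-well plates for 48 hours; endpoints were derived by simple linear interpolation of the resulting dose-response curve. GI50 = concentration required for 50% inhibition of growth.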 Active and inactive are the calls of the source. Cut-off read from the data, not from the text of the source: active = GI50 up to about 1.1 µM and inactive = higher.

What was measured:
Assay in all cases: inhibition of tumour cell growth, NCI panel, 48 h
SNB-78 = system: SNB-78
M19-MEL = system: M19-MEL
DMS-273 = system: DMS-273
DMS-114 = system: DMS-114
DLD-1 = system: DLD-1
MDA-MB-231 = system: MDA-MB-231
BT-549 = system: BT-549
RXF 631 = system: RXF 631
XF498 = system: XF498

Structure (SMILES) | GI50 (SNB-78) | GI50 (M19-MEL) | GI50 (DMS-273) | GI50 (DMS-114) | GI50 (DLD-1) | GI50 (MDA-MB-231) | GI50 (BT-549) | GI50 (RXF 631) | GI50 (XF498)
CN(C)c1ccc(-c2cc(O)c3ccccc3n2)cc1 | > 100 µM (inactive) | > 100 µM (inactive) | > 100 µM (inactive) | > 100 µM (inactive) | > 100 µM (inactive) |  |  |  | 
Cc1c2c(nc3ccccc13)C(=O)c1cccnc1C2=O |  |  |  |  |  | 8.34 µM (inactive) | 61.8 µM (inactive) |  | 
O=C(Nc1nc2c(ncn2C2OC(CO)C(O)C2O)c(=O)[nH]1)c1ccccc1 (stereo not drawn) | > 100 µM (inactive) | > 100 µM (inactive) | > 100 µM (inactive) |  | > 100 µM (inactive) |  |  | > 100 µM (inactive) | > 100 µM (inactive)
CN1CCc2c1nc(-c1cccnc1)c1c2N(C)CC1 | > 100 µM (inactive) | > 100 µM (inactive) | > 100 µM (inactive) | > 100 µM (inactive) | > 100 µM (inactive) |  |  | > 100 µM (inactive) | > 100 µM (inactive)
CCC1C(=O)OCc2c1cc1n(c2=O)Cc2cc3ccccc3nc2-1 (stereo not drawn) |  |  |  |  |  | > 100 µM (inactive) | 4.38 µM (inactive) |  | 
Cc1ccccc1C1=C(C(=O)Nc2ccc(Cl)c(Cl)c2)NC(=S)NC1N (stereo not drawn) | > 100 µM (inactive) | > 100 µM (inactive) | > 100 µM (inactive) | > 100 µM (inactive) | > 100 µM (inactive) |  |  | > 100 µM (inactive) | > 100 µM (inactive)
Cc1ccccc1C1=[N+]([O-])c2ccccc2C1=O |  | 15.2 µM (inactive) |  | 13.4 µM (inactive) | 17.3 µM (inactive) |  |  | 23.6 µM (inactive) | 17.4 µM (inactive)
CC1=C(C(=O)NNS(=O)(=O)c2ccc(C)cc2)CC(C(=O)NNS(=O)(=O)c2ccc(C)cc2)=C(C)N1 | > 100 µM (inactive) | 98.9 µM (inactive) |  | > 100 µM (inactive) | > 100 µM (inactive) |  |  | > 100 µM (inactive) | > 100 µM (inactive)
COC(=O)NCCc1n[nH]c2c1C(=O)C=C(N1CCOCC1)C2=O |  |  |  |  |  | > 100 µM (inactive) | > 100 µM (inactive) |  | 
COc1ccc(C(O)(c2ccccc2)c2nccc3ccccc23)cc1 (stereo not drawn) |  |  |  |  |  | 7.31 µM (inactive) | 8.41 µM (inactive) |  | 
N#Cc1c(O)cc(=O)n2c1[nH]c1ccccc12 |  |  |  |  |  | > 100 µM (inactive) | > 100 µM (inactive) |  | 
Cc1ccc2c(ccc(/C=C/c3ccc(O)c4ncccc34)[n+]2C)c1 | 9.77 µM (inactive) | 6.08 µM (inactive) | 2.07 µM (inactive) | 0.489 µM (active) | 2.72 µM (inactive) | > 33.2 µM (inactive) |  |  | 3.19 µM (inactive)
CC(=O)C(CN(CC(C)C)CC(C)C)C(c1ccccc1)c1c(O)c2ccccc2oc1=O (stereo not drawn) |  | > 100 µM (inactive) |  | > 100 µM (inactive) | > 100 µM (inactive) |  |  | > 100 µM (inactive) | 
CNC(=S)N/N=C1\CC(c2ccccc2)Oc2ccccc21 (stereo not drawn) | > 100 µM (inactive) | 91.8 µM (inactive) | > 100 µM (inactive) |  | > 100 µM (inactive) |  |  |  | 
C=CCN1CCC(O)(c2cc(C(=O)OCC)[nH]c2-c2cc(C)no2)C1 (stereo not drawn) |  |  |  |  |  | > 100 µM (inactive) | > 100 µM (inactive) |  | 
C/C=C1\CN2CCc3c([nH]c4ccccc34)C2CC1CCO (stereo not drawn) | > 100 µM (inactive) | > 100 µM (inactive) | > 100 µM (inactive) | > 100 µM (inactive) | > 100 µM (inactive) |  |  | > 100 µM (inactive) | > 100 µM (inactive)
C=CCC1(CN(C)C)CC/C(=C\c2cc(OC)c(OC)c(OC)c2)C1=O (stereo not drawn) | 28.1 µM (inactive) | 37.1 µM (inactive) | > 10 µM (inactive) | 18.6 µM (inactive) | 20 µM (inactive) |  |  | 25.6 µM (inactive) | 
CC(=O)NC1C(OCc2ccccc2)OC(CO)C(O)C1OCC(=O)N[C@@H](C)C(=O)N[C@H](CCC(=O)NCCNc1ccc([N+](=O)[O-])c2[nH]c3ccccc3c(=O)c12)C(N)=O (stereo partly drawn) |  |  |  |  |  | 28.1 µM (inactive) | 20.1 µM (inactive) |  | 
O=C1CCCCC1C(O)(C(F)(F)F)C(F)(F)Cl (stereo not drawn) |  |  |  |  |  | > 10 µM (inactive) | > 10 µM (inactive) |  | 
CC(=O)OCC1OC(OC(C)=O)C(NC#N)C(OC(C)=O)C1OC(C)=O (stereo not drawn) |  | > 100 µM (inactive) | > 100 µM (inactive) | > 100 µM (inactive) | > 100 µM (inactive) |  |  |  | 
COc1ccc(C2C3=C(COC3=O)Oc3cc4c(cc32)OCO4)cc1 (stereo not drawn) | 16.6 µM (inactive) | 15.5 µM (inactive) | 5.26 µM (inactive) | 4.3 µM (inactive) | 15.4 µM (inactive) |  |  |  | 7.18 µM (inactive)
O=C(O)CCC(=O)OC1N=C(c2ccccc2Cl)c2cc([N+](=O)[O-])ccc2NC1=O (stereo not drawn) |  |  |  |  |  | > 100 µM (inactive) | 89.1 µM (inactive) |  | 
Cc1oc2c(C)c(O)c3c(c2c1C1(C)OCCO1)C(=O)C=C(Cl)C3=O | > 100 µM (inactive) | > 100 µM (inactive) | > 100 µM (inactive) |  |  |  |  | > 100 µM (inactive) | 33.3 µM (inactive)

Structure (SMILES) | GI50 (SNB-78) | GI50 (M19-MEL) | GI50 (DMS-273) | GI50 (DMS-114) | GI50 (DLD-1) | GI50 (MDA-MB-231) | GI50 (BT-549) | GI50 (RXF 631) | GI50 (XF498)
O=c1c(Cc2ccccc2)c(O)cc2n1CCC2 | > 100 µM (inactive) | > 100 µM (inactive) |  | > 100 µM (inactive) | > 100 µM (inactive) |  |  | > 100 µM (inactive) | > 100 µM (inactive)
CC(=O)OC12OC(C)(C3C(=O)N(c4ccccc4)C(=O)C31)N(c1ccccc1)C2=O (stereo not drawn) |  |  |  |  |  | > 100 µM (inactive) | > 100 µM (inactive) |  | 
CC1(C)CCCCCC(C)(CCCO)C1=O (stereo not drawn) |  |  |  |  |  | > 100 µM (inactive) | > 100 µM (inactive) |  | 
N#CC(C#N)=Cc1ccc(CP(=O)(O)O)cc1 | > 100 µM (inactive) | > 100 µM (inactive) | > 100 µM (inactive) | > 100 µM (inactive) | > 100 µM (inactive) |  |  | > 100 µM (inactive) | > 100 µM (inactive)
Cc1cc(N(CCC#N)CCC#N)ccc1/N=N/c1cccc(Cl)c1 | > 100 µM (inactive) | > 100 µM (inactive) | 9.68 µM (inactive) | 31.8 µM (inactive) |  |  |  |  | 
CN(C)CCN(C)C(=O)C1CCCN1C(=O)OCc1ccccc1 (stereo not drawn) | > 100 µM (inactive) | > 100 µM (inactive) | > 100 µM (inactive) | > 100 µM (inactive) | 71.3 µM (inactive) |  |  |  | > 100 µM (inactive)
CC(C)(C)[C@H]1CO[C@]2(C)[C@@H]3C[C@@H]3C(=O)N12 | > 100 µM (inactive) | > 100 µM (inactive) | > 100 µM (inactive) | > 100 µM (inactive) | > 100 µM (inactive) |  |  | > 100 µM (inactive) | > 100 µM (inactive)
O=CN/C=C\c1cc(O)ccc1O | 70 µM (inactive) | 11.8 µM (inactive) | 7.11 µM (inactive) | 14.5 µM (inactive) | 14.6 µM (inactive) |  |  |  | 15.4 µM (inactive)
O=C/C(=C(/Cl)c1ccc(O)cc1)c1ccccc1 | 32.7 µM (inactive) | 19.7 µM (inactive) | 18.8 µM (inactive) | 12.3 µM (inactive) | 23.5 µM (inactive) |  |  | 24.8 µM (inactive) | 18.9 µM (inactive)
O=C1[C@H]2C(c3ccccc3)=NN(C(=O)c3ccccc3)[C@H]2C(=O)N1c1ccccc1 |  |  | > 100 µM (inactive) | > 100 µM (inactive) | > 100 µM (inactive) |  |  |  | 
N#CC12Cc3cc4c(cc3-c3cccc(c31)CCN2C(=O)c1ccccc1)OCO4 (stereo not drawn) | 51.6 µM (inactive) | > 100 µM (inactive) | > 100 µM (inactive) | 83 µM (inactive) | > 100 µM (inactive) |  |  |  | 24.2 µM (inactive)
Cc1nc2ccc(NC3OCC(O)C(O)C3O)cc2c(=O)n1-c1ccccc1 (stereo not drawn) |  |  |  |  |  | > 100 µM (inactive) | > 100 µM (inactive) |  | 
CCOC(=O)/C=C/[C@H](O)[C@@H](O)/C=C/C(=O)OCC |  |  |  |  |  | 41.3 µM (inactive) | 35.3 µM (inactive) |  | 
COc1ccc(N2C(=O)C3c4[nH]c5ccccc5c4C4CC(C)CC(C)C4C3C2=O)cc1 (stereo not drawn) | > 100 µM (inactive) | > 100 µM (inactive) | > 100 µM (inactive) | > 100 µM (inactive) | > 100 µM (inactive) |  |  |  | > 100 µM (inactive)
Cc1ccccc1NC(=O)CC(=O)NNCC(=O)Nc1nnc(-c2ccccc2)s1 | > 100 µM (inactive) | > 100 µM (inactive) | 73.6 µM (inactive) | 43.6 µM (inactive) | 98.9 µM (inactive) |  |  | > 100 µM (inactive) | 31.9 µM (inactive)
O=C1CSC(C(/N=N/c2ccccc2)=C2Nc3ccccc3N2)=N1 | 46.8 µM (inactive) | 36.7 µM (inactive) | 20.1 µM (inactive) | 36.1 µM (inactive) | 64.3 µM (inactive) |  |  |  | 27.9 µM (inactive)
CCOC(=O)C1=C(Nc2cccc3ccccc23)OC/C1=N\NC(=O)c1ccccc1O |  | 19.1 µM (inactive) | 9.59 µM (inactive) | 11.4 µM (inactive) | 17.6 µM (inactive) |  |  | 21.2 µM (inactive) | 8.04 µM (inactive)
CC1[C@@]2(CCC(C)(C)O2)O[C@@H]2C=C3C4CCC5Cc6nc7c(nc6C[C@@]5(C)C4C[C@H](O)[C@@]3(C)[C@]12O)CC1CCC2C3=C[C@H]4O[C@@]5(O[C@@](C)(CO)C[C@@H]5O)C(C)[C@@]4(O)[C@]3(C)[C@@H](O)CC2[C@]1(C)C7 (stereo partly drawn) | 0.043 µM (active) | 0.991 µM (active) | 0.0123 µM (active) | 0.0268 µM (active) | 0.753 µM (active) |  |  | 0.0198 µM (active) | 0.322 µM (active)
COc1ccccc1/C=C\c1cc(OC)c(OC)c(OC)c1 | 28.3 µM (inactive) | 9.1 µM (inactive) | 4.62 µM (inactive) | 6.41 µM (inactive) | 23.2 µM (inactive) |  |  | 15.8 µM (inactive) | 9.64 µM (inactive)
Cn1cnc([N+](=O)[O-])c1Sc1ccccn1 | > 100 µM (inactive) | > 100 µM (inactive) | > 100 µM (inactive) | > 100 µM (inactive) | > 100 µM (inactive) |  |  | > 100 µM (inactive) | 36.3 µM (inactive)
OCC1CCC(n2cnc3c(O)ncnc32)O1 (stereo not drawn) |  | > 100 µM (inactive) | > 100 µM (inactive) | > 100 µM (inactive) | > 100 µM (inactive) | > 1000 µM (inactive) | > 1000 µM (inactive) |  | 
CC(C)C1=Cc2ccc3c(c2C(=O)C1=O)CCCC3(C)C [MILTIRONE] | 3.85 µM (inactive) | 2.56 µM (inactive) | 4.34 µM (inactive) |  | 2.15 µM (inactive) |  |  |  | 
